The IC50 is the concentration needed to halve the response being measured.

21 compounds from patent US20130018033A1, “RAF INHIBITOR COMPOUNDS AND METHODS OF USE THEREOF” (ARRAY BIOPHARMA INC., priority 2009, published 2013) can be followed below.

Structures are written as SMILES. Like-named read-outs stand apart in the source and are kept apart here.

Test [1] deals with T1, V600E full-length B-Raf (Homo sapiens, UniProt P15056, V600E).
T1 construct: 1 μM FSBA-MEK and 20 nM V600E full-length B-Raf; made in house; host or cells: Sf9 insect cells (baculovirus)
The experiment in a line: B-Raf IC50 assay (Example A). Type of test: biochemical. From the text: Determining the activity of Raf in the sample is possible by a number of direct and indirect detection methods (US 2004/0082014). Activity of human recombinant B-Raf protein may be assessed in vitro by assay of the incorporation of radio labeled phosphate to recombinant MAP kinase (MEK), a known physiologic substrate of B-Raf, according to US 2004/0127496 and WO 03/022840. The activity/inhibition of V600E full-length B-Raf was estimated by measuring the incorporation of radio labeled phosphate from [γ-^33P]ATP into FSBA-modified wild-type MEK (see Example A).
Activity of human recombinant B-Raf protein may be assessed in vitro by assay of the incorporation of radio labeled phosphate to recombinant MAP kinase (MEK), a known physiologic substrate of B-Raf, according to US 2004/0127496 and WO 03/022840. Catalytically active human recombinant B-Raf protein is obtained by purification from sf9 insect cells infected with a human B-Raf recombinant baculovirus expression vector.
The activity/inhibition of V600E full-length B-Raf was estimated by measuring the incorporation of radio labeled phosphate from [γ-^33P]ATP into FSBA-modified wild-type MEK. The 30-μL assay mixtures contained 25 mM Na Pipes, pH 7.2, 100 mM KCl, 10 mM MgCl2, 5 mM β-glycerophosphate, […], 4 μM ATP, 500 nCi [γ-^33P]ATP, 1 μM FSBA-MEK and 20 nM V600E full-length B-Raf. Incubations were carried out at 22° C. in a Costar 3365 plate (Corning). Prior to the assay, the B-Raf and FSBA-MEK were preincubated together in assay buffer at 1.5×(20 μL of 30 nM and 1.5 μM, respectively) for 15 minutes, and the assay was initiated by the addition of 10 μL of 10 μM ATP. Following the 60-minute incubation, the assay mixtures were quenched by the addition of 100 μL of 25% TCA, the plate was mixed on a rotary shaker for 1 minute, and the product was captured on a Perkin-Elmer GF/B filter plate using a Tomtec Mach III Harvester. After sealing the bottom of the plate, 35 μL of Bio-Safe II (Research Products International) scintillation cocktail were added to each well and the plate was top-sealed and counted in a Topcount NXT (Packard).

The test system of test [2] is basal ERK1/2 phosphorylation in Malme-3M cells. The experiment in a line: Cellular ERK 1/2 phosphorylation assay (Example A1). Type of test: cell-based. Particulars: Homo sapiens, 1 hour incubation, pERK normalized to total ERK, read-out: P-ERK Malme3-M IC50. As to the method:
Inhibition of basal ERK1/2 phosphorylation was determined by the following in vitro […], which comprises incubating cells with a compound of Formula I for 1 hour and quantifying the fluorescent pERK signal on fixed cells and normalizing to total ERK signal.
Malme-3M cells were obtained from ATCC and grown in RPMI-1640 supplemented with 10% fetal bovine serum. Cells were plated in 96-well plates at 24,000 cells/well and allowed to attach for 16-20 hours at 37° C., 5% CO2. The media was removed, and DMSO-diluted compounds were added in RPMI-1640 at a final concentration of 1% DMSO. The cells were incubated with the compounds for 1 hour at 37° C., 5% CO2. The cells were washed with PBS and fixed in 3.7% formaldehyde in PBS for 15 minutes. This was followed by washing in PBS/0.05% Tween20 and permeabilizing in −20° C. 100% MeOH for 15 minutes. Cells were washed in PBS/0.05% Tween20 then blocked in Odyssey blocking buffer (LI-COR Biosciences) for 1 hour. Antibodies to phosphorylated ERK (1:400, Cell Signaling #9106, monoclonal) and total ERK (1:400, Santa Cruz Biotechnology #sc-94, polyclonal) were added to the cells and incubated 16-20 hours at 4° C. After washing with PBS/0.05% Tween20, the cells were incubated with fluorescently-labeled secondary antibodies (1:1000 goat anti-rabbit IgG-IRDye800, Rockland and 1:500 goat anti-mouse IgG-Alexa Fluor 680, Molecular Probes) for an additional hour. Cells were then washed and analyzed for fluorescence at both wavelengths using the Odyssey Infrared Imaging System (LI-COR Biosciences). Phosphorylated ERK signal was normalized to total ERK signal.

[3] abbreviates: B-Raf V600E assay of Example A, read-out: IC50.
The mark [4] stands for this setting: [γ-33P]ATP incorporation into FSBA-MEK, 4 μM ATP, read-out: BRAF V600E IC50.

T1 sequence (P15056 whole entry V600E): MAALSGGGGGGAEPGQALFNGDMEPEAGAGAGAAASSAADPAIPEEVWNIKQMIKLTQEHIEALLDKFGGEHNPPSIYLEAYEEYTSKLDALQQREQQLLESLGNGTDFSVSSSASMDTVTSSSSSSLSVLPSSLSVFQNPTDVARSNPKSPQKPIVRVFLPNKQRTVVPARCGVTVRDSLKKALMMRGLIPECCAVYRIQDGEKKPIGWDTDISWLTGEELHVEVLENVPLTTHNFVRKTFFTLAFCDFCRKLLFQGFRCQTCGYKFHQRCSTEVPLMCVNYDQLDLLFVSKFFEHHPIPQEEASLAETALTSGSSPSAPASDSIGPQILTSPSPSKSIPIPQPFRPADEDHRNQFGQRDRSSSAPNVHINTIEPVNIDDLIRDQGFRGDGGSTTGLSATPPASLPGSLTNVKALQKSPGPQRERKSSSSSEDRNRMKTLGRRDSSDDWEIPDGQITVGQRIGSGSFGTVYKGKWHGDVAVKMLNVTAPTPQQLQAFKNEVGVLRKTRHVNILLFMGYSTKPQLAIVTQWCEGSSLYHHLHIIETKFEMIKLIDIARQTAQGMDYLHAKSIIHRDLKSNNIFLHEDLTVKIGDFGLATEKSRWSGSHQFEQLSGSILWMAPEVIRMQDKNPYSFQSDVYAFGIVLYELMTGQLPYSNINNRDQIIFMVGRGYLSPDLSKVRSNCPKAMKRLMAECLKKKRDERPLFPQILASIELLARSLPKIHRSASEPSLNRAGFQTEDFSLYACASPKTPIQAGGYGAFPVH

As to `CCCS(=O)(=O)Nc1ccc(F)c(NC(=O)c2cccc3c(N)ncnc23)c1F` [Example 1, 4-Amino-quinazoline-8-carboxylic acid [2,6-difluoro-3-(propane-1-sulfonylamino)-phenyl]-amide], the IC50 in test [1] (setting [3]) was < 100 nM; in test [1] (BRAF V600E IC50 (μM), [γ-33P]ATP incorporation into FSBA-MEK, 4 μM ATP), 1.77 nM; in test [2], 8.67 nM.

As for `CCCS(=O)(=O)Nc1ccc(F)c(NC(=O)c2cncc3c(N)ncnc23)c1F` [Example 2, 4-Amino-pyrido[4,3-d]pyrimidine-8-carboxylic acid [2,6-difluoro-3-(propane-1-sulfonylamino)-phenyl]-amide], the half-inhibitory concentration (IC50) in test [1] (setting [3]) is < 100 nM; in test [1] (setting [4]), 1.25 nM; in test [2], 9.6 nM.

Consider `CCCS(=O)(=O)Nc1ccc(F)c(NC(=O)c2cccc3c(N)ncnc23)c1OC` [Example 4, 4-Amino-quinazoline-8-carboxylic acid [6-fluoro-2-methoxy-3-(propane-1-sulfonylamino)-phenyl]-amide], for which the concentration for half-maximal inhibition (IC50) is < 1000 nM in test [1] (setting [3]), 191 nM in test [1] (setting [4]) and 433 nM in test [2].

Consider `CCCS(=O)(=O)Nc1cccc(NC(=O)c2cccc3c(N)ncnc23)c1Cl` [Example 5, 4-Amino-quinazoline-8-carboxylic acid [2-chloro-3-(propane-1-sulfonylamino)-phenyl]-amide], for which the IC50 in test [1] (setting [3]) was < 100 nM; in test [1] (setting [4]), 4.77 nM; in test [2], 40.7 nM.

`CCCS(=O)(=O)Nc1ccc(F)c(NC(=O)c2cccc3c(N)ncnc23)c1` [Example 6, 4-Amino-quinazoline-8-carboxylic acid [2-fluoro-5-(propane-1-sulfonylamino)-phenyl]-amide]: the half-maximal inhibitory concentration (IC50) is < 100 nM in test [1] (setting [3]), 50.4 nM in test [1] (setting [4]) and 1720 nM in test [2].

As to `CCCS(=O)(=O)Nc1ccc(Cl)c(NC(=O)c2cccc3c(N)ncnc23)c1Cl` [Example 7, 4-Amino-quinazoline-8-carboxylic acid [2,6-dichloro-3-(propane-1-sulfonylamino)-phenyl]-amide], the IC50 is < 100 nM in test [1] (setting [3]), 0.07 nM in test [1] (setting [4]) and 7.2 nM in test [2].

Consider `CCCS(=O)(=O)Nc1cccc(NC(=O)c2cccc3c(N)ncnc23)c1F` [Example 8, 4-Amino-quinazoline-8-carboxylic acid [2-fluoro-3-(propane-1-sulfonylamino)-phenyl]-amide], for which the concentration for half-maximal inhibition (IC50) in test [1] (setting [3]) is < 100 nM; in test [1] (setting [4]), 10.8 nM; in test [2], 32.6 nM.

For `CCCS(=O)(=O)Nc1cc(F)c(F)c(NC(=O)c2cccc3c(NC4CCCCC4)ncnc23)c1F` [Example 41, 4-Cyclohexylamino-quinazoline-8-carboxylic acid [2,3,6-trifluoro-5-(propane-1-sulfonylamino)-phenyl]-amide], in test [1] (setting [4]), the IC50 was > 1000 nM.

Regarding `CCCS(=O)(=O)Nc1cc(F)c(F)c(NC(=O)c2cccc3c(NC4CCOCC4)ncnc23)c1F` [Example 42, 4-(Tetrahydropyran-4-ylamino)-quinazoline-8-carboxylic acid [2,3,6-trifluoro-5-(propane-1-sulfonylamino)-phenyl]-amide], the IC50 in test [1] (setting [4]) is > 1000 nM.

Take `CCCS(=O)(=O)Nc1cc(F)c(F)c(NC(=O)c2cccc3c(NC4CCNCC4)ncnc23)c1F` [Example 44, 4-(Piperidin-4-ylamino)-quinazoline-8-carboxylic acid [2,3,6-trifluoro-5-(propane-1-sulfonylamino)-phenyl]-amide]: the concentration for half-maximal inhibition (IC50) in test [1] (setting [4]) was > 1000 nM.

In the case of `CCCS(=O)(=O)Nc1cc(F)c(F)c(NC(=O)c2cccc3c(NC4CC4)ncnc23)c1F` [Example 45, 4-Cyclopropylamino-quinazoline-8-carboxylic acid [2,3,6-trifluoro-5-(propane-1-sulfonylamino)-phenyl]-amide], the IC50 is < 1000 nM in test [1] (setting [3]) and 545 nM in test [1] (setting [4]).

As to `CCCS(=O)(=O)Nc1cc(F)c(F)c(NC(=O)c2cccc3c(NC4CCC(F)(F)CC4)ncnc23)c1F` [Example 46, 4-(4,4-Difluoro-cyclohexylamino)-quinazoline-8-carboxylic acid [2,3,6-trifluoro-5-(propane-1-sulfonylamino)-phenyl]-amide], in test [1] (setting [4]), the IC50 was > 1000 nM.

Regarding `CCCS(=O)(=O)Nc1cc(F)c(F)c(NC(=O)c2cccc3c(Nc4ccn(C)n4)ncnc23)c1F` [Example 48, 4-(1-Methyl-1H-pyrazol-3-ylamino)-N-(2,3,6-trifluoro-5-(propylsulfonamido)phenyl)quinazoline-8-carboxamide], in test [1] (setting [4]), the IC50 is > 1000 nM.

In the case of `CCCS(=O)(=O)Nc1cc(F)c(F)c(NC(=O)c2cccc3c(NCC)ncnc23)c1F` [Example 49, 4-Ethylamino-quinazoline-8-carboxylic acid [2,3,6-trifluoro-5-(propane-1-sulfonylamino)-phenyl]-amide], the figures for the IC50 in test [1] (setting [3]) and in test [1] (setting [4]) were < 1000 nM and 737 nM, respectively.

Turning to `CCCS(=O)(=O)Nc1cc(F)c(F)c(NC(=O)c2cccc3c(NC)ncnc23)c1F` [Example 50, 4-Methylamino-quinazoline-8-carboxylic acid [2,3,6-trifluoro-5-(propane-1-sulfonylamino)-phenyl]-amide], in test [1] (setting [4]), the 50% inhibitory concentration (IC50) was > 1000 nM.

As to `O=C(Nc1c(F)ccc(NS(=O)(=O)CC2CC2)c1F)c1cccc2c(NC3CC3)ncnc12` [Example 53, 4-Cyclopropylamino-quinazoline-8-carboxylic acid (3-cyclopropylmethanesulfonylamino-2,6-difluoro-phenyl)-amide], the IC50 was < 1000 nM in test [1] (setting [3]) and 976 nM in test [1] (setting [4]).

Take `CCCS(=O)(=O)Nc1ccc(F)c(NC(=O)c2cc(C)cc3c(NC4CCCC4)ncnc23)c1F` [Example 71, 4-Cyclopentylamino-6-methyl-quinazoline-8-carboxylic acid [2,6-difluoro-3-(propane-1-sulfonylamino)-phenyl]-amide]: the IC50 in test [1] (setting [4]) is > 1000 nM.

In the case of `CCCS(=O)(=O)Nc1ccc(F)c(NC(=O)c2cc(C)cc3c(NC4CC4)ncnc23)c1F` [Example 73, 4-Cyclopropylamino-6-methyl-quinazoline-8-carboxylic acid [2,6-difluoro-3-(propane-1-sulfonylamino)-phenyl]-amide], the IC50 in test [1] (setting [3]) was < 1000 nM; in test [1] (setting [4]), 879 nM.

`CCCS(=O)(=O)Nc1ccc(F)c(NC(=O)c2cc(C)cc3c(NC4CCOCC4)ncnc23)c1F` [Example 74, 6-Methyl-4-(tetrahydro-pyran-4-ylamino)-quinazoline-8-carboxylic acid [2,6-difluoro-3-(propane-1-sulfonylamino)-phenyl]-amide]: the IC50 in test [1] (setting [4]) is > 1000 nM.

In the case of `CCCS(=O)(=O)Nc1ccc(F)c(NC(=O)c2cc(C)cc3c(NC4CCC4)ncnc23)c1F` [Example 75, 4-Cyclobutylamino-6-methyl-quinazoline-8-carboxylic acid [2,6-difluoro-3-(propane-1-sulfonylamino)-phenyl]-amide], in test [1] (setting [4]), the IC50 is > 1000 nM.

Consider `CCCS(=O)(=O)Nc1ccc(F)c(NC(=O)c2cc(C)cc3c(NC4CCC(F)(F)CC4)ncnc23)c1F` [Example 76, 4-(4,4-Difluoro-cyclohexylamino)-6-methyl-quinazoline-8-carboxylic acid [2,6-difluoro-3-(propane-1-sulfonylamino)-phenyl]-amide], for which the half-inhibitory concentration (IC50) in test [1] (setting [4]) was > 1000 nM.
